{"source": "paper PMC9743090", "about": "“Induction of Ferroptosis in Glioblastoma and Ovarian Cancers by a New Pyrrole Tubulin Assembly Inhibitor” (Journal of Medicinal Chemistry, 2022)", "key": {"SKOV-3": {"test_system": "SKOV-3", "assay": "In vivo SKOV-3 xenograft, tumor size and tumor tissue analysis", "parameters": "species or system BALB/C^nu/nu mice", "procedure": "(§1) Briefly, all 10 week-old female BALB/C^nu/nu mice (24 mice) were purchased from the Shanghai University of Traditional Chinese Medicine with Institutional Animal Care and Use Committee approval in accordance with institutional guidelines. All mice were randomly divided into four groups. In #1 group (4 mice), 1 × 10^8 cells/mL from U-87 MG at the logarithmic growth phase were harvested and inoculated subcutaneously, followed by intraperitoneal injection of 100 μL of 15 (25 mg/kg) every 2 days. In #2 group (4 mice), 1 × 10^8 cells/mL from U-87 MG at the logarithmic growth phase were harvested and inoculated subcutaneously, followed by intraperitoneal injection of 100 μL of saline every 2 days. In #3 group (4 mice), 1 × 10^8 cells/mL from SKOV-3 at the logarithmic growth phase were harvested and inoculated subcutaneously, followed by intraperitoneal injection of 100 μL 15 (25 mg/kg) every 2 days. In #4 group (4 mice), 1 × 10^8 cells/mL from SKOV-3 at the logarithmic growth phase were harvested and inoculated subcutaneously, followed by intraperitoneal injection of 100 μL of saline every 2 days. After continuous feeding for 40 days, the mice were sacrificed, and the tumors were removed. The tumors were weighed, and the volumes were calculated using the following formula: Tumor volume (cm^3) = (ab^2)/2 (a: the longest axis (cm), b: the shortest axis (cm)).\n(§2) Briefly, fresh tissues were immersed in 4% paraformaldehyde (Sigma-Aldrich) for fixation at room temperature for 30 min. The tissues were then dehydrated in an ethanol gradient, embedded in paraffin, sectioned (thickness: 6 μm), and immersed in xylene for dewaxing. Tissue sections were blocked with immunohistochemical blocking solution (Beyotime Biotechnology Co., Ltd., Zhejiang, China) at 37 °C for 30 min. The blocking solution was then discarded, and the sections were washed three times at room temperature for 5 min, each with immunohistochemical washing solution (Beyotime Biotechnology). Then, primary antibodies (rabbit anti-GPX4 antibody [EPNCIR144] (ab125066), rabbit anti-ferritin heavy chain antibody [EPR18878] (ab183781), and rabbit anti-Ki67 antibody (ab15580), Abcam, MA, USA) were added and incubated at 37 °C for 45 min. After incubation, the antibody solution was discarded, and the sections were washed three times at room temperature for 5 min each with immunohistochemical washing solution (Beyotime Biotechnology). Then, the secondary antibody (goat anti-rabbit IgG H&L (Alexa Fluor 488), Abcam, MA, USA) was added, and the tissues were incubated at 37 °C for 45 min. After incubation, the antibody solution was discarded, and the sections were washed three times at room temperature for 5 min, each with immunohistochemical washing solution (Beyotime Biotechnology). Finally, immunofluorescence blocking solution (Sigma-Aldrich) was added, and the sections were mounted.\n(§3) According to the instructions of the RNAprep pure Tissue Kit (TIANGEN Biotech (Beijing) China) Co., Ltd., Beijing, China), to about 20 mg of […] tissue specimen was added 800 μL of lysis solution, and the mixture was ground, homogenized, and centrifuged. To the supernatant, 200 μL of chloroform was added, and the mixture was mixed by inverting and centrifuged at 4 °C at 13,400 × g for 15 min. To the supernatant, two volumes of absolute ethanol were added, mixed by inversion, and centrifuged at 4 °C at 13,400 × g for 30 min. Ethanol precipitation and centrifugation of the supernatant were repeated. The RNA pellet was suspended with 500 μL of 75% ethanol and centrifuged at 13,400 × g at 4 °C for 5 min. The supernatant was discarded, the excess liquid was removed, and the pellet was dissolved in 300 μL of DECP water. One microliter of the RNA solution was used to measure the ratio of A260–A280 (generally 1.8–2.0) to determine the purity and approximate concentration of the RNA. […]"}, "U-87 MG": {"test_system": "U-87 MG", "assay": "In vivo U-87 MG xenograft, tumor size and tumor tissue analysis", "parameters": "species or system BALB/C^nu/nu mice", "procedure": "as §1, §2, §3"}, "[1]": {"test_system": "PARP cleavage in OVCAR-3 cells", "assay": "PARP cleavage by western blot in OVCAR-3 cells", "assay_type": "cell-based, human", "details": "immunoblotting", "procedure": "Western blotting was performed as previously described[68] by lysing cells in denaturing buffer sodium dodecyl sulfate (SDS)–urea. Extracts were sonicated, their protein quantified, and aliquots were loaded into an SDS–polyacrylamide gel. After electrophoresis, the proteins in the gel were transferred onto a nitrocellulose membrane (cat. no. NBA085C001EA, PerkinElmer), which then was blocked with 5% milk in TBS-T (Tris HCl with 0.1% Tween 20) and incubated with primary antibodies overnight: PARP antibody diluted 1:1000 (cat. no. 9542S CST) and actin antibody diluted 1:10,000 (cat. no. A5441, Sigma Aldrich). The next day, the membrane was extensively washed with TBS-T and incubated with horse radish peroxidase (HRP)-conjugated secondary antibodies diluted in the 5% milk solution. Detection of the HRP signal was performed using ECL (cat. no. K-12045-D50, Advansta)."}, "tubulin": {"test_system": "tubulin", "assay": "Inhibition of tubulin polymerization (assembly assay)", "assay_type": "biochemical", "details": "tubulin at 10 μM, read-out: Tubulin IC50 ± SD", "procedure": "The assembly reaction mixtures contained 0.8 M monosodium glutamate (pH 6.6 with HCl in a 2 M stock solution), 10 μM tubulin, 4% (v/v) DMSO, and varying concentrations of the drug. Following a 15 min preincubation at 30 °C, samples were chilled on ice, GTP to 0.4 mM was added, and turbidity development was followed at 350 nm in a temperature-controlled recording spectrophotometer for 20 min at 30 °C. The extent of reaction was measured. Full experimental details were previously described.[63] For the colchicine binding assay, reaction mixtures contained 1.0 μM tubulin, 5.0 μM [^3H]colchicine, and 5.0 or 1.0 μM inhibitor and were incubated for 10 min at 37 °C. Complete details were described previously.[64]"}, "[2]": {"details": "25 mg/kg i.p. every 2 days, day 40"}}}
{"smiles": "COc1cc(C(=O)c2cn(-c3ncccn3)cc2-c2ccco2)cc(OC)c1OC", "note": "[Compound 15, (4-(Furan-2-yl)-1-(pyrimidyl-2-yl)-1H-pyrrol-3-yl)(3,4,5-trimethoxyphenyl)methanone]", "values": [{"measurement": "ATP level in tumor tissue vs control", "setting": "SKOV-3; 25 mg/kg i.p. every 2 days", "result": "significantly lower"}, {"measurement": "Fe2+ concentration in tumor tissue vs control", "setting": "SKOV-3; 25 mg/kg i.p. every 2 days", "result": "significantly higher"}, {"measurement": "LPO level in tumor tissue vs control", "setting": "SKOV-3; 25 mg/kg i.p. every 2 days", "result": "appreciably higher"}, {"measurement": "MDA level in tumor tissue vs control", "setting": "SKOV-3; 25 mg/kg i.p. every 2 days", "result": "appreciably higher"}, {"measurement": "T-GSH level in tumor tissue vs control", "setting": "SKOV-3; 25 mg/kg i.p. every 2 days", "result": "significantly lower"}, {"measurement": "lactic acid level in tumor tissue vs control", "setting": "SKOV-3; 25 mg/kg i.p. every 2 days", "result": "appreciably higher"}, {"measurement": "tumor size (volume and weight) vs saline control", "setting": "SKOV-3; [2]", "result": "significantly smaller"}, {"measurement": "CD31 expression in tumor tissue vs control", "setting": "SKOV-3; immunofluorescence staining", "result": "significantly lower expression"}, {"measurement": "FTH1 expression in tumor tissue vs control", "setting": "SKOV-3; immunofluorescence staining", "result": "significantly lower expression"}, {"measurement": "GPX4 expression in tumor tissue vs control", "setting": "SKOV-3; immunofluorescence staining", "result": "significantly lower expression"}, {"measurement": "Ki67 expression in tumor tissue vs control", "setting": "SKOV-3; immunofluorescence staining", "result": "significantly lower expression"}, {"measurement": "ATP level in tumor tissue vs control", "setting": "U-87 MG; 25 mg/kg i.p. every 2 days", "result": "significantly lower"}, {"measurement": "Fe2+ concentration in tumor tissue vs control", "setting": "U-87 MG; 25 mg/kg i.p. every 2 days", "result": "significantly higher"}, {"measurement": "LPO level in tumor tissue vs control", "setting": "U-87 MG; 25 mg/kg i.p. every 2 days", "result": "appreciably higher"}, {"measurement": "MDA level in tumor tissue vs control", "setting": "U-87 MG; 25 mg/kg i.p. every 2 days", "result": "appreciably higher"}, {"measurement": "T-GSH level in tumor tissue vs control", "setting": "U-87 MG; 25 mg/kg i.p. every 2 days", "result": "significantly lower"}, {"measurement": "lactic acid level in tumor tissue vs control", "setting": "U-87 MG; 25 mg/kg i.p. every 2 days", "result": "appreciably higher"}, {"measurement": "tumor size (volume and weight) vs saline control", "setting": "U-87 MG; [2]", "result": "significantly smaller"}, {"measurement": "CD31 expression in tumor tissue vs control", "setting": "U-87 MG; immunofluorescence staining", "result": "significantly lower expression"}, {"measurement": "FTH1 expression in tumor tissue vs control", "setting": "U-87 MG; immunofluorescence staining", "result": "significantly lower expression"}, {"measurement": "GPX4 expression in tumor tissue vs control", "setting": "U-87 MG; immunofluorescence staining", "result": "significantly lower expression"}, {"measurement": "Ki67 expression in tumor tissue vs control", "setting": "U-87 MG; immunofluorescence staining", "result": "significantly lower expression"}, {"measurement": "concentration from which cleaved PARP increases", "setting": "[1]", "result": "≥ 5", "unit": "nM"}, {"measurement": "IC50", "setting": "tubulin", "result": "0.52 ± 0.07", "unit": "µM"}]}
